# Test results from US20090018111A1, “Novel Antimicrobial Medicament” (priority 2004, published 2009).
# Like-named read-outs stand apart in the source and are kept apart here.
# Columns and labels:
# Test in all cases: Sensitivity test (agar dilution)
# S. aureus 209P = assay type: cell-based, Staphylococcus aureus; conditions: Staphylococcus aureus, 209P, S. aureus 209P
# Method: (§1) The antibacterial activities were tested against various 18 bacteria (27 standard strains) which are representative bacteria caused clinically infectious disease (Staphylococcus aureus 3 strains, Staphylococcus epidermidis 1 strain, Micrococcus luteus 1 strain, Streptococcus pyogenes 1 strain, Enterococcus faecalis 1 strain, Enterococcus faecium 1 strain, Bacillus subtilis 1 strain, Escherichia coli 3 strains, Klebsiella pneumoniae 1 strain, Proteus mirabilis 1 strain, Proteus vulgaris 2 strains, Pseudomonas aeruginosa 3 strains, Serratia marcescens 2 strains, Enterobacter aerogenes 1 strain, Stenotrophomonas maltophilia 1 strain, Enterobacter cloacae 1 strain, Citrobacter freundii 1 strain, Moraxella catarrhalis 2 strains).
# (§2) According to the standard method of Japan Chemotherapeutic Society (Chemotherapy, vol. […], p 76-79 (1981)) the test was carried out using the agar dilution method. After dissolving test samples in distilled water, agar medium containing the test samples was prepared in such a manner that the final concentration became twice serial dilution by pouring serially diluted combination drug solution or a single drug solution into agar medium. As agar medium was used Mueller Hinton Agar medium (MHA). Then, each strain was cultivated over night at 37° C. in an incubator and suspended in buffered saline solution with gelatin (BSG) in the concentration of about 10^6 CFU/ml. The suspension (about 5 μl) containing test strains was inoculated to the medium containing the test samples by Micro Planter.
# (§3) When the sample is subjected to sensitivity test, this mixed solution was diluted by twice serial dilution method.
# (§4) Furthermore, when the drug is solely used, each test sample was used as it is, and diluted by twice serial dilution method from the maximum concentration to the minimum concentration.
# (§5) FIC index based on MIC value was calculated. […] Namely, when FIC index calculated by the following formula is equal or less than 1, the enhanced effect of the combination drug in said ratio is considered as positive. When FIC index is over 1, the enhanced effect of the combination drug in said ratio is considered as negative.
# (§6) Formula of FIC index: FIC index=(MIC of Drug A in combination/MIC of Drug A alone)+(MIC of Drug B in combination/MIC of Drug B alone) N.C. in tables means being not calculated.
# [1] = test system: S. aureus MS94088 (hetero-MRSA); assay type: cell-based, Staphylococcus aureus; conditions: Staphylococcus aureus, MRSA, S. aureus MS94088 (hetero-MRSA)
# Method: as §1, §2, §3, §4, §5, §6
# [2] = test system: S. aureus SP-7928 (homo-MRSA); assay type: cell-based, Staphylococcus aureus; conditions: Staphylococcus aureus, MRSA, S. aureus SP-7928 (homo-MRSA)
# Method: as §1, §2, §3, §4, §5, §6
# M. luteus ATCC9341 = assay type: cell-based, Micrococcus luteus; conditions: Micrococcus luteus, M. luteus ATCC9341
# Method: as §1, §2, §3, §4, §5, §6
# K. pneumoniae ATCC10031 = assay type: cell-based, Klebsiella pneumoniae; conditions: Klebsiella pneumoniae, K. pneumoniae ATCC10031
# Method: as §1, §2, §3, §4, §5, §6
# E. aerogenes ATCC13048 = assay type: cell-based, Enterobacter aerogenes; conditions: Klebsiella aerogenes, E. aerogenes ATCC13048
# Method: as §1, §2, §3, §4, §5, §6
# C. freundii GN346 = assay type: cell-based, Citrobacter freundii; conditions: Citrobacter freundii, C. freundii GN346
# Method: as §1, §2, §3, §4, §5, §6
# P. aeruginosa IFO3451 = assay type: cell-based, Pseudomonas aeruginosa; conditions: Pseudomonas aeruginosa, P. aeruginosa IFO3451
# Method: as §1, §2, §3, §4, §5, §6
# P. aeruginosa TL-2666 = assay type: cell-based, Pseudomonas aeruginosa; conditions: Pseudomonas aeruginosa, P. aeruginosa TL-2666
# Method: as §1, §2, §3, §4, §5, §6
# P. aeruginosa TL-2667 = assay type: cell-based, Pseudomonas aeruginosa; conditions: Pseudomonas aeruginosa, P. aeruginosa TL-2667
# Method: as §1, §2, §3, §4, §5, §6
# S. maltophilia IID1275 = assay type: cell-based, Stenotrophomonas maltophilia; conditions: Stenotrophomonas maltophilia, S. maltophilia IID1275
# Method: as §1, §2, §3, §4, §5, §6
# M. catarrhalis ATCC25238 = assay type: cell-based, Moraxella catarrhalis; conditions: Moraxella catarrhalis, M. catarrhalis ATCC25238
# Method: as §1, §2, §3, §4, §5, §6
# M. catarrhalis ATCC8176 = assay type: cell-based, Moraxella catarrhalis; conditions: Moraxella catarrhalis, M. catarrhalis ATCC8176
# Method: as §1, §2, §3, §4, §5, §6
# [3] = Concomitant (AZT:SM = 1:1), read-out: MIC concomitant
# [4] = drug alone, read-out: MIC alone
# [5] = ATCC9341, drug alone, read-out: MIC alone
# [6] = ATCC10031, drug alone, read-out: MIC alone
# [7] = ATCC13048, drug alone, read-out: MIC alone
# [8] = GN346, drug alone, read-out: MIC alone
# [9] = IFO3451, drug alone, read-out: MIC alone
# [10] = TL2666, drug alone, read-out: MIC alone
# [11] = TL2667, drug alone, read-out: MIC alone
# [12] = IID1275, drug alone, read-out: MIC alone
# [13] = ATCC25238, drug alone, read-out: MIC alone
# [14] = ATCC8176, drug alone, read-out: MIC alone
# [15] = Concomitant (BIPM:SM = 1:1), read-out: MIC concomitant
Structure (SMILES),MIC (S. aureus 209P; [4]),"MIC [1, 4]","MIC [2, 4]",MIC (M. luteus ATCC9341; [5]),MIC (K. pneumoniae ATCC10031; [6]),MIC (E. aerogenes ATCC13048; [7]),MIC (C. freundii GN346; [8]),MIC (P. aeruginosa IFO3451; [9]),MIC (P. aeruginosa TL-2666; [10]),MIC (P. aeruginosa TL-2667; [11]),MIC (S. maltophilia IID1275; [12]),MIC (M. catarrhalis ATCC25238; [13]),MIC (M. catarrhalis ATCC8176; [14]),also measured
"C[C@H]1[C@H](NC(=O)/C(=N\OC(C)(C)C(=O)O)c2csc(N)n2)C(=O)N1S(=O)(=O)O [AZT, aztreonam]",> 32 µg/mL,> 32 µg/mL,> 32 µg/mL,16 µg/mL,0.004 µg/mL,0.063 µg/mL,0.5 µg/mL,2 µg/mL,2 µg/mL,2 µg/mL,> 32 µg/mL,0.125 µg/mL,0.25 µg/mL,"MIC (S. aureus 209P; [3]): 0.008 µg/mL; MIC [1, 3]: 0.25 µg/mL; MIC [2, 3]: 2 µg/mL; MIC (M. luteus ATCC9341; ATCC9341, Concomitant (AZT:SM = 1:1), read-out: MIC concomitant): ≤ 0.002 µg/mL; MIC (K. pneumoniae ATCC10031; ATCC10031, Concomitant (AZT:SM = 1:1), read-out: MIC concomitant): 0.004 µg/mL; MIC (E. aerogenes ATCC13048; ATCC13048, Concomitant (AZT:SM = 1:1), read-out: MIC concomitant): 8 µg/mL; MIC (C. freundii GN346; GN346, Concomitant (AZT:SM = 1:1), read-out: MIC concomitant): 8 µg/mL; MIC (P. aeruginosa IFO3451; IFO3451, Concomitant (AZT:SM = 1:1), read-out: MIC concomitant): 2 µg/mL; MIC (P. aeruginosa TL-2666; TL2666, Concomitant (AZT:SM = 1:1), read-out: MIC concomitant): 8 µg/mL; MIC (P. aeruginosa TL-2667; TL2667, Concomitant (AZT:SM = 1:1), read-out: MIC concomitant): 8 µg/mL; MIC (S. maltophilia IID1275; IID1275, Concomitant (AZT:SM = 1:1), read-out: MIC concomitant): > 32 µg/mL; MIC (M. catarrhalis ATCC25238; ATCC25238, Concomitant (AZT:SM = 1:1), read-out: MIC concomitant): ≤ 0.002 µg/mL; MIC (M. catarrhalis ATCC8176; ATCC8176, Concomitant (AZT:SM = 1:1), read-out: MIC concomitant): ≤ 0.002 µg/mL"
"C[C@@H](O)[C@H]1C(=O)N2C(C(=O)[O-])=C(SC3Cn4cnc[n+]4C3)[C@H](C)[C@H]12 (stereo partly shown) [BIPM, biapenem]",0.031 µg/mL,4 µg/mL,> 32 µg/mL,0.125 µg/mL,0.031 µg/mL,0.125 µg/mL,0.25 µg/mL,0.25 µg/mL,1 µg/mL,8 µg/mL,> 32 µg/mL,0.016 µg/mL,0.031 µg/mL,"MIC (S. aureus 209P; [15]): 0.008 µg/mL; MIC [1, 15]: 0.25 µg/mL; MIC [2, 15]: 2 µg/mL; MIC (M. luteus ATCC9341; ATCC9341, Concomitant (BIPM:SM = 1:1), read-out: MIC concomitant): 0.004 µg/mL; MIC (K. pneumoniae ATCC10031; ATCC10031, Concomitant (BIPM:SM = 1:1), read-out: MIC concomitant): 0.016 µg/mL; MIC (E. aerogenes ATCC13048; ATCC13048, Concomitant (BIPM:SM = 1:1), read-out: MIC concomitant): 0.063 µg/mL; MIC (C. freundii GN346; GN346, Concomitant (BIPM:SM = 1:1), read-out: MIC concomitant): 0.125 µg/mL; MIC (P. aeruginosa IFO3451; IFO3451, Concomitant (BIPM:SM = 1:1), read-out: MIC concomitant): 0.25 µg/mL; MIC (P. aeruginosa TL-2666; TL2666, Concomitant (BIPM:SM = 1:1), read-out: MIC concomitant): 1 µg/mL; MIC (P. aeruginosa TL-2667; TL2667, Concomitant (BIPM:SM = 1:1), read-out: MIC concomitant): 4 µg/mL; MIC (S. maltophilia IID1275; IID1275, Concomitant (BIPM:SM = 1:1), read-out: MIC concomitant): > 32 µg/mL; MIC (M. catarrhalis ATCC25238; ATCC25238, Concomitant (BIPM:SM = 1:1), read-out: MIC concomitant): ≤ 0.002 µg/mL; MIC (M. catarrhalis ATCC8176; ATCC8176, Concomitant (BIPM:SM = 1:1), read-out: MIC concomitant): ≤ 0.002 µg/mL"
